In ChEMBL document CHEMBL6078694, “Divergent Metabolism of Cyclo-l-Trp-l-Leu in Streptomyces albofaciens by Hydroxylation and Nucleobase Transfer with Two Cytochrome P450 Enzymes” (J Nat Prod, 2024):
Active and inactive are the calls of the source.

What was measured:
Type in all cases: functional, organism-based
Conditions in all cases: time 16-20 hrs
[1] = test system: Niallia circulans; test: Antibacterial activity against Bacillus circulans NRRL B-380 assessed as reduction in bacterial growth measured after 16 to 20 hrs by agar disk diffusion method
[2] = test system: Bacillus subtilis; test: Antibacterial activity against Bacillus subtilis NCLB3610 assessed as reduction in bacterial growth measured after 16 to 20 hrs by agar disk diffusion method
[3] = test system: Staphylococcus aureus; test: Antibacterial activity against Staphylococcus aureus ATCC29213 assessed as reduction in bacterial growth measured after 16 to 20 hrs by agar disk diffusion method
[4] = test system: Pseudomonas aeruginosa; test: Antibacterial activity against Pseudomonas aeruginosa ATCC 27853 assessed as reduction in bacterial growth measured after 16 to 20 hrs by agar disk diffusion method
[5] = test system: Klebsiella pneumoniae; test: Antibacterial activity against Klebsiella pneumoniae DSM 26371 assessed as reduction in bacterial growth measured after 16 to 20 hrs by agar disk diffusion method
[6] = test system: Enterococcus faecalis; test: Antibacterial activity against Enterococcus faecalis DSM 2570 assessed as reduction in bacterial growth measured after 16 to 20 hrs by agar disk diffusion method
[7] = test system: Staphylococcus delphini; test: Antibacterial activity against Staphylococcus delphini DSM 20771 assessed as reduction in bacterial growth measured after 16 to 20 hrs by agar disk diffusion method
[8] = test system: Escherichia coli; test: Antibacterial activity against Escherichia coli ATCC 35218 assessed as reduction in bacterial growth measured after 16 to 20 hrs by agar disk diffusion method

Measured: Activity

CC(C)C[C@@H]1NC(=O)[C@@H]2C[C@]3(c4nc5c(=O)[nH]c(N)nc5[nH]4)c4ccccc4N[C@@H]3N2C1=O
inactive: all assays above

CC(C)C[C@@H]1NC(=O)[C@H]([C@@H](O)c2c[nH]c3ccccc23)NC1=O
inactive: all assays above
